Values quoted from earlier work in US11134680B2, “Disinfectant having organic acids” (Bode Chemie GmbH, priority 2015, dated 2021).

What was measured:
[1] = at 20° C.
[2] = test system: Staphylococcus aureus; details: exposure time of 72 hours
[3] = test system: C. albicans; details: 72 hours

For `CC(O)C(=O)O` (centres unmarked) [lactic acid], the pKa [1] is listed as 3.87 and the reduction factor ([2]; concentration of 0.3%) is listed as greater than 5 log.
In the case of `O=C([O-])c1ccccc1.[Na+]` [sodium benzoate], the MMC ([3]; >5 log) is listed as 1200 µg/mL and the “reduction (microbicidal action)” value ([3]; application solution of 0.12%) is listed as greater than 5 log.
For `CC(=O)O` [acetic acid], the “minimum inhibitory concentration (MIC)” value [2] is given as 9%.
